Earlier results on 1 substance are cited in patent US8748582B2, “Affinity ligands and methods for protein purification” (Monash University, priority 2009, dated 2014).

In this data set the target is IgG. To be noted: read-out: dissociation constant for IgG.

pKd: −log10 of the molar value.

As to “Protein A: bacterial Fc receptor used as immobilised affinity ligand for antibodies”, the pKd was 7.00.
